Laboratory results reported in patent publication US6008225A, “Derivatives of antibiotic GE2270 factors C2a, D2 and E” (BioSearch Italia, S.p.A., priority 1996, dated 1999).

Tests used:
[1] = test system: Klebsiella pneumoniae ISM; assay: MIC by microbroth dilution, Klebsiella pneumoniae; format: cell-based; conditions: Klebsiella pneumoniae ISM (code 142); 0.01% BSA; inocula about 10^4 (1-4), about 5×10^5 cfu/ml (6); 18-24 h
[2] = test system: Proteus vulgaris X19H ATCC881; assay: MIC by microbroth dilution, Proteus vulgaris; format: cell-based; conditions: Proteus vulgaris X19H ATCC881 (code 79); 0.01% BSA; inocula about 10^4 (1-4), about 5×10^5 cfu/ml (5, 6); 18-24 h
[3] = test system: Pseudomonas aeruginosa ATCC10145; assay: MIC by microbroth dilution, Pseudomonas aeruginosa; format: cell-based; conditions: Pseudomonas aeruginosa ATCC10145 (code 4); 0.01% BSA; inocula about 10^4 (1-4), about 5×10^5 cfu/ml (5, 6); 18-24 h
[4] = test system: Strep. pyogenes C203; assay: MIC by microbroth dilution, Strep. pyogenes; format: cell-based, Streptococcus pyogenes; conditions: Strep. pyogenes C203 (code 49); Todd Hewitt broth; 0.01% BSA; inocula about 10^4 (1-4), about 5×10^5 cfu/ml (5, 6); 18-24 h
[5] = test system: Propionibacterium acnes ATCC6919; assay: MIC by microbroth dilution, Propionibacterium acnes; format: cell-based; conditions: Propionibacterium acnes ATCC6919 (code 1014); anaerobe, 48 h; 0.01% BSA; inocula about 10^5 (1-4), about 5×10^5 cfu/ml (5, 6)
[6] = test system: Bacteroides fragilis ATCC 25285; assay: MIC by microbroth dilution, Bacteroides fragilis; format: cell-based; conditions: Bacteroides fragilis ATCC 25285 (code 1011); anaerobe, 48 h; 0.01% BSA; inocula about 10^5 (1-4), about 5×10^5 cfu/ml (5, 6)
[7] = test system: Staph. haemolyticus clin. is.; assay: MIC by microbroth dilution, Staph. haemolyticus; format: cell-based, Staphylococcus haemolyticus; conditions: Staph. haemolyticus clin. is. (code 602); 0.01% BSA; inocula about 10^4 (1-4), about 5×10^5 cfu/ml (5, 6); 18-24 h
[8] = test system: Neisseria gonorrhoeae ISM 68/126; assay: MIC by microbroth dilution, Neisseria gonorrhoeae; format: cell-based; conditions: Neisseria gonorrhoeae ISM 68/126 (code 997); 5% CO2, 48 h; 0.01% BSA; inocula about 10^4 (1-4), about 5×10^5 cfu/ml (5, 6)
[9] = test system: Clostridium perfringens ISS30543; format: cell-based; conditions: Clostridium perfringens ISS30543 (code 290); anaerobe, 48 h; 0.01% BSA; inocula about 10^5 (1-4), about 5×10^5 cfu/ml (5, 6)
[10] = test system: Staph. aureus Tour; assay: MIC by microbroth dilution, Staph. aureus Tour; format: cell-based, Staphylococcus aureus; conditions: Staph. aureus Tour (code 165), 0.01% BSA, read 18-24 h
[11] = test system: Staph. aureus Smith; assay: MIC by microbroth dilution, Staph. aureus Smith; format: cell-based, Staphylococcus aureus; conditions: Staph. aureus Smith (code 819); 0.01% BSA; inocula about 10^4 (1-4), about 5×10^5 cfu/ml (5, 6); 18-24 h
[12] = test system: Enterococcus faecalis ATCC 6919; assay: MIC by microbroth dilution, Enterococcus faecalis; format: cell-based; conditions: Enterococcus faecalis ATCC 6919 (code 149); 0.01% BSA; inocula about 10^4 (1-4), about 5×10^5 cfu/ml (5, 6); 18-24 h
[13] = test system: Haemophilus influenzae type b ATCC19418; assay: MIC by microbroth dilution, Haemophilus influenzae; format: cell-based; conditions: Haemophilus influenzae type b ATCC19418 (code 970); 5% CO2, 48 h; 0.01% BSA; inocula about 10^4 (1-4), about 5×10^5 cfu/ml (5, 6)
[14] = test system: Strep. pneumoniae UC41; assay: MIC by microbroth dilution, Strep. pneumoniae; format: cell-based, Streptococcus pneumoniae; conditions: Strep. pneumoniae UC41 (code 44); Todd Hewitt broth; 0.01% BSA; inocula about 10^4 (1-4), about 5×10^5 cfu/ml (5, 6); 18-24 h
[15] = test system: Escherichia coli SKF 12140; assay: MIC by microbroth dilution, Escherichia coli; format: cell-based; conditions: Escherichia coli SKF 12140 (code 47); 0.01% BSA; inocula about 10^4 (1-4), about 5×10^5 cfu/ml (5, 6); 18-24 h
[16] = test system: Staph. epidermidis ATCC 12228; assay: MIC by microbroth dilution, Staph. epidermidis; format: cell-based, Staphylococcus epidermidis; conditions: Staph. epidermidis ATCC 12228 (code 147); 0.01% BSA; inocula about 10^4 (1-4), about 5×10^5 cfu/ml (5, 6); 18-24 h
[17] = inocula about 10^4 cfu/ml (compounds 1-4), about 5×10^5 cfu/ml (5, 6)

Compound	MIC of the compounds [1]	MIC of the compounds [2]	MIC of the compounds [3]	MIC of the compounds [4]	MIC of the compounds [5]	MIC of the compounds [6]	MIC of the compounds [7]	MIC of the compounds [8]	MIC of the compounds [9]	MIC of the compounds ([10]; 10^6 cfu/ml)	MIC of the compounds ([10]; 30% b.s.)	MIC of the compounds [10, 17]	MIC of the compounds [11]	MIC of the compounds [12]	MIC of the compounds [13]	MIC of the compounds [14]	MIC of the compounds [15]	MIC of the compounds [16]
CCN(CC)Cc1sc2nc1C(=O)NCC(=O)NC(C(O)c1ccccc1)c1nc(cs1)-c1nc(cs1)-c1nc(-c3nc(C4=NC(C(=O)N5CCCC5C(N)=O)CO4)cs3)ccc1-c1nc(cs1)C(=O)NC(CC(=O)NC)c1nc(c(C)s1)C(=O)NC2C(C)C (stereo not drawn) [Compound 1]	> 128 µg/mL	> 128 µg/mL	> 128 µg/mL	4 µg/mL	0.03 µg/mL	64 µg/mL	0.13 µg/mL	> 128 µg/mL	0.13 µg/mL	0.25 µg/mL	0.5 µg/mL	0.13 µg/mL	0.13 µg/mL	0.06 µg/mL	> 128 µg/mL	1 µg/mL	> 128 µg/mL	–
CNC(=O)CC1NC(=O)c2csc(n2)-c2ccc(-c3nc(C4=NC(C(=O)N5CCCC5C(N)=O)CO4)cs3)nc2-c2csc(n2)-c2csc(n2)C(C(O)c2ccccc2)NC(=O)CNC(=O)c2nc(sc2CN(C)C)C(C(C)C)NC(=O)c2nc1sc2C (stereo not drawn) [Compound 2]	> 128 µg/mL	> 128 µg/mL	> 128 µg/mL	0.5 µg/mL	0.06 µg/mL	128 µg/mL	0.25 µg/mL	4 µg/mL	0.06 µg/mL	0.13 µg/mL	0.13 µg/mL	0.13 µg/mL	0.13 µg/mL	0.06 µg/mL	8 µg/mL	0.13 µg/mL	> 128 µg/mL	0.13 µg/mL
CNC(=O)C[C@@H]1NC(=O)c2csc(n2)-c2ccc(-c3nc(C4=N[C@H](C(=O)N5CCC[C@H]5C(N)=O)CO4)cs3)nc2-c2csc(n2)-c2csc(n2)C(C(O)c2ccccc2)NC(=O)CNC(=O)c2nc(sc2CN(C)CCN(C)C)[C@H](C(C)C)NC(=O)c2nc1sc2C (stereo partly drawn) [Compound 3]	> 128 µg/mL	> 128 µg/mL	> 128 µg/mL	2 µg/mL	0.5 µg/mL	> 128 µg/mL	8 µg/mL	> 128 µg/mL	4 µg/mL	4 µg/mL	1 µg/mL	1 µg/mL	1 µg/mL	1 µg/mL	> 128 µg/mL	1 µg/mL	> 128 µg/mL	8 µg/mL
CCSCc1sc2nc1C(=O)NCC(=O)NC(C(O)c1ccccc1)c1nc(cs1)-c1nc(cs1)-c1nc(-c3nc(C4=N[C@H](C(=O)N5CCC[C@H]5C(N)=O)CO4)cs3)ccc1-c1nc(cs1)C(=O)N[C@@H](CC(=O)NC)c1nc(c(C)s1)C(=O)N[C@H]2C(C)C (stereo partly drawn) [Compound 4]	> 128 µg/mL	> 128 µg/mL	> 128 µg/mL	64 µg/mL	0.004 µg/mL	> 128 µg/mL	8 µg/mL	> 128 µg/mL	0.016 µg/mL	–	–	0.13 µg/mL	0.25 µg/mL	0.06 µg/mL	> 128 µg/mL	0.5 µg/mL	> 128 µg/mL	4 µg/mL
CCN(CC)CCNC(=O)[C@@H]1CCCN1C(=O)[C@@H]1COC(c2csc(-c3ccc4c(n3)-c3csc(n3)-c3csc(n3)C(C(O)c3ccccc3)NC(=O)CNC(=O)c3nc(sc3CO)[C@H](C(C)C)NC(=O)c3nc(sc3C)[C@H](CC(=O)NC)NC(=O)c3csc-4n3)n2)=N1 (stereo partly drawn) [Compound 5]	–	> 128 µg/mL	> 128 µg/mL	0.13 µg/mL	0.03 µg/mL	32 µg/mL	0.13 µg/mL	32 µg/mL	0.06 µg/mL	0.13 µg/mL	0.25 µg/mL	0.06 µg/mL	0.13 µg/mL	0.06 µg/mL	8 µg/mL	0.13 µg/mL	> 128 µg/mL	0.13 µg/mL
CCN(CC)CCNC(=O)[C@@H]1CCCN1C(=O)[C@@H]1COC(c2csc(-c3ccc4c(n3)-c3csc(n3)-c3csc(n3)C(C(O)c3ccccc3)NC(=O)CNC(=O)c3nc(sc3CN(C)C)[C@H](C(C)C)NC(=O)c3nc(sc3C)[C@H](CC(=O)NC)NC(=O)c3csc-4n3)n2)=N1 (stereo partly drawn) [Compound 6]	> 128 µg/mL	> 128 µg/mL	> 128 µg/mL	0.13 µg/mL	16 µg/mL	64 µg/mL	0.5 µg/mL	16 µg/mL	0.06 µg/mL	–	–	0.13 µg/mL	0.13 µg/mL	0.13 µg/mL	> 128 µg/mL	0.13 µg/mL	> 128 µg/mL	0.5 µg/mL
